Results from PubChem BioAssay (NCI).
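96-well plates; 48 h exposure; 5 concentrations. Endpoints by linear interpolation between flanking doses. Not reached: highest tested concentration assigned. Here, GI50 denotes the concentration required for 50% inhibition of growth. TGI marks complete inhibition of growth.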

Tests used:
Experiment in all cases: NCI anticancer screen, dose series, 48 h
[1] = test system: SK-MEL-5 melanoma
[2] = test system: U251 CNS
[3] = test system: SF-539 CNS
[4] = test system: SK-MEL-28 melanoma
[5] = test system: NCI-H23 lung
[6] = test system: SNB-19 CNS
[7] = test system: UO-31 renal
[8] = test system: OVCAR-4 ovarian
[9] = test system: 786-0 renal
[10] = test system: NCI/ADR-RES ovarian

## COc1nc2c(c(O)c(C)c(=O)n2OC2OC(COC(C)=O)C(OC(C)=O)C(OC(C)=O)C2OC(C)=O)c(=O)n1C (centres undefined)
[1]
  TGI: > 100 µM
[2]
  TGI: > 100 µM
[3]
  TGI: > 100 µM
[4]
  TGI: > 100 µM
[5]
  TGI: > 100 µM
[6]
  TGI: > 100 µM
[7]
  TGI: > 100 µM
[8]
  TGI: > 100 µM
[9]
  TGI: > 100 µM

## c1cnc2[nH]cc(-c3csc(-c4cn(CCCN5CCCCC5)c5ccccc45)n3)c2c1
[2]
  GI50: 1.8 µM
  TGI: 3.28 µM
[3]
  GI50: 1.68 µM
  TGI: 3.1 µM
[7]
  GI50: 1.18 µM
  TGI: 2.5 µM
[8]
  GI50: 1.82 µM
  TGI: 4.19 µM
[9]
  GI50: 1.63 µM
  TGI: 3.06 µM

## CC[P+]1(CC)CCCC1
[1]
  TGI: > 100 µM
[2]
  TGI: > 100 µM
[3]
  TGI: > 100 µM
[4]
  TGI: > 100 µM
[5]
  TGI: > 100 µM
[6]
  TGI: > 100 µM
[7]
  TGI: > 100 µM
[8]
  TGI: > 100 µM
[9]
  TGI: > 100 µM

## CC1=C(C(=O)CC(=O)C(=O)NC2C3CC4CC(C3)CC2C4)Sc2ccccc2N1 (centres undefined)
[1]
  TGI: > 100 µM
[2]
  TGI: > 100 µM
[3]
  TGI: > 100 µM
[4]
  TGI: > 100 µM
[5]
  TGI: > 100 µM
[6]
  TGI: > 100 µM
[7]
  TGI: > 100 µM
[8]
  TGI: > 100 µM
[9]
  TGI: > 100 µM

## C[C@@]12CCCC(=O)N1[C@@H](CO)C(c1ccccc1)O2 (some centres undefined)
[1]
  TGI: > 100 µM
[2]
  TGI: > 100 µM
[3]
  TGI: > 100 µM
[4]
  TGI: > 100 µM
[5]
  TGI: > 100 µM
[6]
  TGI: > 100 µM
[8]
  TGI: > 100 µM
[9]
  TGI: > 100 µM

## Cc1cc(=O)oc2cc(OCCn3c(C)nn(-c4ccc(Cl)cc4)c3=O)ccc12
[1]
  GI50: 0.848 µM
  TGI: > 100 µM
[2]
  GI50: 4.18 µM
  TGI: 72.3 µM
[3]
  GI50: 4.06 µM
  TGI: 47.3 µM
[4]
  GI50: 3.13 µM
  TGI: > 100 µM
[5]
  GI50: 2.83 µM
  TGI: > 100 µM
[6]
  GI50: 5.37 µM
  TGI: > 100 µM
[7]
  GI50: 12.7 µM
  TGI: > 100 µM
[10]
  GI50: 1.64 µM
  TGI: > 100 µM
[9]
  GI50: 5.7 µM
  TGI: > 100 µM

## Cc1nnc(N=Nc2c(O)[nH]c3ccccc23)n1N
[1]
  TGI: > 100 µM
[2]
  TGI: > 100 µM
[3]
  TGI: > 100 µM
[4]
  TGI: > 100 µM
[5]
  TGI: > 100 µM
[6]
  TGI: > 100 µM
[7]
  TGI: > 100 µM
[8]
  TGI: > 100 µM
[9]
  TGI: > 100 µM

## COc1ccc2c(c1)nc1n2C(c2ccc(F)cc2)SC1 (centres undefined)
[1]
  GI50: 15.4 µM
  TGI: 28.7 µM
[2]
  GI50: 27.9 µM
  TGI: 83.7 µM
[5]
  GI50: 18.9 µM
  TGI: > 100 µM
[6]
  GI50: 36.5 µM
  TGI: > 100 µM
[7]
  GI50: 23.5 µM
  TGI: 67.9 µM
[8]
  GI50: 33.8 µM
  TGI: > 100 µM
[10]
  GI50: 20.7 µM
  TGI: 45.8 µM
[9]
  GI50: 60.8 µM
  TGI: > 100 µM

## NC(=O)c1c[se]c(C2OC(COP(=O)(O)CP(=O)(O)OCC3OC(n4cnc5c(N)ncnc54)C(O)C3O)C(O)C2O)n1 (centres undefined)
[1]
  TGI: > 100 µM
[2]
  TGI: > 100 µM
[3]
  TGI: > 100 µM
[4]
  TGI: > 100 µM
[5]
  TGI: > 100 µM
[6]
  TGI: > 100 µM
[7]
  TGI: > 100 µM
[8]
  TGI: > 100 µM
[9]
  TGI: > 100 µM

## COC(=O)c1cc2c3c(ccc2[nH]1)N(C(=O)c1cc2c4c(ccc2[nH]1)N(C(=O)c1cc2c5c(ccc2[nH]1)N(C(N)=O)CC5)CC4)CC3
[1]
  TGI: 8.68 µM
[2]
  TGI: > 21.9 µM
[3]
  TGI: > 34.8 µM
[4]
  TGI: > 100 µM
[5]
  TGI: > 100 µM
[6]
  TGI: 12.6 µM
[7]
  TGI: 8.47 µM
[8]
  TGI: > 100 µM
[9]
  TGI: > 31.9 µM

## COc1ccc(C2NCCc3c2[nH]c2ccccc32)cc1 (centres undefined)
[1]
  TGI: 66.1 µM
[2]
  TGI: > 100 µM
[3]
  TGI: > 100 µM
[4]
  TGI: > 100 µM
[5]
  TGI: > 100 µM
[6]
  TGI: > 100 µM
[7]
  TGI: > 100 µM
[9]
  TGI: > 100 µM

## COc1ccccc1/C=C\C(=O)c1ccccc1
[1]
  GI50: 5.01 µM
  TGI: 17 µM
[2]
  GI50: 4.25 µM
  TGI: 16.8 µM
[3]
  GI50: 13.8 µM
  TGI: 26.7 µM
[5]
  GI50: 13.5 µM
  TGI: 29.4 µM
[6]
  GI50: 4.38 µM
  TGI: 16.7 µM
[7]
  GI50: 4.58 µM
  TGI: 17.3 µM
[8]
  GI50: 4.31 µM
  TGI: 17.1 µM
[10]
  GI50: 4.38 µM
  TGI: 24.3 µM
[9]
  GI50: 15 µM
  TGI: 28.4 µM

## O=C1C(c2ccccc2)=C(c2ccccc2)[C@H](c2ccccc2)[C@]1(Cc1nnn(-c2ccc([N+](=O)[O-])cc2)c1N1CCOCC1)c1ccccc1
[1]
  TGI: > 37.5 µM
[2]
  TGI: > 37.5 µM
[3]
  TGI: > 37.5 µM
[4]
  TGI: > 37.5 µM
[5]
  TGI: > 37.5 µM
[6]
  TGI: > 37.5 µM
[8]
  TGI: > 37.5 µM
[9]
  TGI: > 37.5 µM

## COc1ccc(CC2=NCCc3cc(OC)c(OC)cc32)cc1Br
[1]
  TGI: 25.3 µM
[2]
  TGI: > 100 µM
[3]
  TGI: > 100 µM
[4]
  TGI: > 100 µM
[5]
  TGI: > 100 µM
[6]
  TGI: > 100 µM
[7]
  TGI: > 100 µM
[8]
  TGI: > 100 µM
[9]
  TGI: > 100 µM

## CC(=O)[CH-]C(=O)c1ccccc1.CC(=O)[CH-]C(=O)c1ccccc1.[CH2-]CCC.[CH2-]CCC.[Sn+4]
[1]
  GI50: 0.625 µM
  TGI: 1.97 µM
[2]
  GI50: 1.32 µM
  TGI: 2.65 µM
[3]
  GI50: 1.36 µM
  TGI: 2.77 µM
[5]
  GI50: 0.476 µM
  TGI: 1.77 µM
[6]
  GI50: 1.3 µM
  TGI: 2.73 µM
[7]
  GI50: 1.37 µM
  TGI: 2.66 µM
[9]
  GI50: 1.09 µM
  TGI: 2.28 µM

## COC(=O)C1(F)C(=O)NC(=O)NC1OC (centres undefined)
[1]
  TGI: > 100 µM
[2]
  TGI: > 100 µM
[3]
  TGI: > 100 µM
[4]
  TGI: > 100 µM
[5]
  TGI: > 100 µM
[6]
  TGI: > 100 µM
[7]
  TGI: > 100 µM
[8]
  TGI: > 100 µM
[9]
  TGI: > 100 µM

## CCN(CC)CCOc1ccc(/C=C2\CC3C4CC=C5C[C@@H](OC(C)=O)CC[C@]5(C)C4CC[C@]3(C)C2=O)cc1OC (some centres undefined)
[2]
  GI50: 11.4 µM
  TGI: 25.8 µM
[5]
  GI50: 12.4 µM
  TGI: 49.5 µM
[6]
  GI50: 47.1 µM
  TGI: > 100 µM
[7]
  GI50: 11.1 µM
  TGI: 23.1 µM
[8]
  GI50: 20.9 µM
  TGI: > 100 µM
[10]
  GI50: 5.08 µM
  TGI: > 100 µM
[9]
  GI50: 2.03 µM
  TGI: 4.29 µM

## CC1(C)C2CCC13C(=O)C1OC3(C2)C2C(=O)c3c(O)cccc3C(=O)C12 (centres undefined)
[1]
  GI50: 0.46 µM
  TGI: 1.64 µM
[2]
  GI50: 0.64 µM
  TGI: 1.81 µM
[3]
  GI50: 2.64 µM
  TGI: 8.05 µM
[4]
  GI50: 3.58 µM
  TGI: 21.1 µM
[5]
  GI50: 2.24 µM
  TGI: 6.55 µM
[6]
  GI50: 10.6 µM
  TGI: 23.9 µM
[7]
  GI50: 4.5 µM
  TGI: 18.5 µM
[10]
  GI50: 2.1 µM
  TGI: 6.01 µM
[9]
  GI50: 0.319 µM
  TGI: 0.829 µM
